# Source: US8741910B2, “Soluble guanylate cyclase activators” (Merck Sharp & Dohme Corp., priority 2008, dated 2014)
# pEC50: −log10 of the molar value.
# Molecular target: T1, sGC α1/β1 heterodimer (Homo sapiens, UniProt Q02108+Q02153)
# T1 construct: expressed in transfected cells; host or cells: CHO-K1 (clone #7, CHO-K1/sGC)
# T1 sequence (Q02108 1-690): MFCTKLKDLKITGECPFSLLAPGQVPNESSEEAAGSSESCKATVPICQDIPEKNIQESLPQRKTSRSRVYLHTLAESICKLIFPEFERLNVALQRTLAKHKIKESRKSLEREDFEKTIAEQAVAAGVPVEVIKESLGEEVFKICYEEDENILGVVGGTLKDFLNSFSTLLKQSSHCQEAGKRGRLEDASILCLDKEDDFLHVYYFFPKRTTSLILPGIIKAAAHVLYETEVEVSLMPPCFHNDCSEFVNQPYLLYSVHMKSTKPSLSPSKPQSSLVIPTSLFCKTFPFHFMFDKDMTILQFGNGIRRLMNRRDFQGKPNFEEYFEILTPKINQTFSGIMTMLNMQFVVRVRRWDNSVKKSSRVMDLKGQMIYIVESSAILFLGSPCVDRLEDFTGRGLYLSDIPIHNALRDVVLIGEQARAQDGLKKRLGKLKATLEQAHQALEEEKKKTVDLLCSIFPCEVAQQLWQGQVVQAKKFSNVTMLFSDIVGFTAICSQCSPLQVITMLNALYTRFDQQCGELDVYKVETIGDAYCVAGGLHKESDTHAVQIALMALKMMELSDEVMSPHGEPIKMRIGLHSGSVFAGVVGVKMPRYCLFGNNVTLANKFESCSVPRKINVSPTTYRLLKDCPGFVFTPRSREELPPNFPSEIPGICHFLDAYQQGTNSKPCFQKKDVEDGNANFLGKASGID
# T1 sequence (Q02153 1-619): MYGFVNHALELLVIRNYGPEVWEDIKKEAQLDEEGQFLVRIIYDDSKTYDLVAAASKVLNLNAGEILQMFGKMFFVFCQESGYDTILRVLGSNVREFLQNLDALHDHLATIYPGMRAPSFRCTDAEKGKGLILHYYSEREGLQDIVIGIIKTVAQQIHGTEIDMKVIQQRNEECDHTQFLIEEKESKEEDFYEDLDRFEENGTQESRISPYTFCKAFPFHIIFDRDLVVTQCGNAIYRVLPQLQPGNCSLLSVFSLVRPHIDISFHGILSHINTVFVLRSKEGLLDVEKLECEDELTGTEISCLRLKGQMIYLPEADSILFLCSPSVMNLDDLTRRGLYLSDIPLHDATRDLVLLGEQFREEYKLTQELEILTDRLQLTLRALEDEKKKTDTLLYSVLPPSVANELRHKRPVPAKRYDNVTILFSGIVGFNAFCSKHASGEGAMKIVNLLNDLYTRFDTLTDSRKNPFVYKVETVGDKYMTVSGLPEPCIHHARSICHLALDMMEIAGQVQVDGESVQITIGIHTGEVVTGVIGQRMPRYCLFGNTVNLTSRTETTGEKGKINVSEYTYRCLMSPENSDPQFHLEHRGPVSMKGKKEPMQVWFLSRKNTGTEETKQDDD
# Assay: Cell-Based sGC Functional Assay (CASA Assay)
# Settings: CHO-K1/sGC cells, intracellular cGMP by HTRF, 1 hr at 37 °C
# From the text: Increases in cGMP levels affect several physiological processes including vasorelaxation through multiple downstream pathways. […] Heme-dependent activators (HDAs) preferentially activate sGC containing a ferrous heme group. To determine the effect of sGC activators on enzyme activity, the CASA assay was developed to monitor the generation of cGMP in a cell line that stably expresses the heterodimeric sGC protein.
# A CHO-K1 cell line stably expressing the sGC α1/β1 heterodimer was generated using a standard transfection protocol. CHO-K1 cells were transfected with plasmids pIREShyghsGCα1 and pIRESneo-hsGCβ1 simultaneously using FUGENE reagent. Clones that stably express both subunits were selected with hygromycin and neomycin for ˜2 weeks. Clone #7 was chosen for the assay and was designated CHO-K1/sGC. CHO-K1/sGC cells were maintained in F-K12 medium containing 10% heat-inactivated Fetal Bovine Serum (FBS), 100 μg/mL penicillin/streptomycin, 0.5 mg/mL hygromycin and 0.25 mg/mL G418. […] IBMX (3-isobutyl-1-methylxanthin, 0.5 mM) was added to inhibit degradation of cGMP. Compounds were diluted from DMSO stock solutions and added to the assay at a final DMSO concentration of 1%. […] At the end of the incubation period, the reaction was terminated and the cells were lysed. The level of intracellular cGMP was determined using an HTRF-based assay kit (CisBio, 62GM2PEC), which detects the displacement of a fluorescence labeled cGMP from its specific antibody.
row,Structure (SMILES),pEC50
1,"CC1(C)C(=O)Nc2nc(-c3nc(Cc4c(F)ccc(F)c4F)n4cc(Cl)ccc34)nc(N)c21 [Example 59, 4-amino-2-[6-chloro-3-(2,3,6-trifluorobenzyl)imidazo[1,5-a]pyridin-1-yl]-5,5-dimethyl-5,7-dihydro-6H-pyrrolo[2,3-d]pyrimidin-6-one]",7.62
2,"CC1(C)C(=O)Nc2nc(-c3nc(Cc4c(F)ccc(F)c4F)n4cc(F)ccc34)nc(N)c21 [Example 60, 4-amino-2-[6-fluoro-3-(2,3,6-trifluorobenzyl)imidazo[1,5-a]pyridin-1-yl]-5,5-dimethyl-5,7-dihydro-6H-pyrrolo[2,3-d]pyrimidin-6-one]",7.51
3,"CC1(C)C(=O)Nc2nc(-c3nn(CCC(F)(F)C(F)(F)F)c4cc(Cl)ccc34)nc(N)c21 [Example 111, 4-amino-2-[6-chloro-1-(3,3,4,4,4-pentafluorobutyl)-1H-indazol-3-yl]-5,5-dimethyl-5,7-dihydro-6H-pyrrolo[2,3-d]pyrimidin-6-one]",7.08
